{"source": "ChEMBL document CHEMBL1201862", "about": "“PubChem BioAssay data set” (2004)", "key": {"[1]": {"molecular_target": "T1, Beta-2 adrenergic receptor (Homo sapiens, UniProt P07550)", "T1 sequence (P07550 whole entry)": "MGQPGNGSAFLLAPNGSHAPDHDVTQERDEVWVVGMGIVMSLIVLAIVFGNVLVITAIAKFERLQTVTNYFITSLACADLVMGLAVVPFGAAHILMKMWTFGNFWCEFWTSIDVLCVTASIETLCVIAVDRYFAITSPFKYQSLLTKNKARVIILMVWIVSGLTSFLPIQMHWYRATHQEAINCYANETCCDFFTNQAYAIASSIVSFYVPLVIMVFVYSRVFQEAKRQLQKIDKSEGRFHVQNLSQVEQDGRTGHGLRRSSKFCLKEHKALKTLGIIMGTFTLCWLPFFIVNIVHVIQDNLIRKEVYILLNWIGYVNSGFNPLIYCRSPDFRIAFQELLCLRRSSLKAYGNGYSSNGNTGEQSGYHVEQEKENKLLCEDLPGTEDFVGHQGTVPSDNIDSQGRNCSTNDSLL", "test": "ADRB2 activation measured by internalization – cell-based, FAP fluorogen, flow cytometry, cherry pick 1, dose response (AID 588763)", "type": "functional"}, "[2]": {"molecular_target": "T1, Beta-2 adrenergic receptor", "test": "Dose response for HTS for Beta-2AR agonists via FAP method from Powderset3.", "type": "functional"}, "[3]": {"test": "Counterscreen for […] of the human trace amine associated receptor 1 (TAAR1): Fluorescence-based cell-based high throughput dose response assay to identify nonselective Ga16 agonists.", "type": "functional"}, "[4]": {"molecular_target": "T2, Trace amine-associated receptor 1 (Homo sapiens, UniProt Q96RJ0)", "T2 sequence (Q96RJ0 whole entry)": "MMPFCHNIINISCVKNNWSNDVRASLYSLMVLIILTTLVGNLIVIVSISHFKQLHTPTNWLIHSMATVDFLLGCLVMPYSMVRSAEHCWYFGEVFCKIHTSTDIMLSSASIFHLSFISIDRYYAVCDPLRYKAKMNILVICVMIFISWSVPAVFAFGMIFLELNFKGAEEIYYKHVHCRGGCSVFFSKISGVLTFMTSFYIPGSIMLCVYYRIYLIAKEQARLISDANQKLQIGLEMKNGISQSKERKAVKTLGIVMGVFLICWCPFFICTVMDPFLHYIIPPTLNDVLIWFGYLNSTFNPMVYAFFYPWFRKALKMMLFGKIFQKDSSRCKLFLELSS", "test": "Fluorescence-based cell-based high throughput dose response assay to identify antagonists of the human trace amine associated receptor 1 (TAAR1).", "type": "functional"}, "[5]": {"test": "Counterscreen for antagonists of the human trace amine associated receptor 1 (hTAAR1): Fluorescence-based cell-based high throughput dose response assay to identify nonselective Ga16 antagonists.", "type": "functional"}, "[6]": {"molecular_target": "T2, Trace amine-associated receptor 1", "test": "Counterscreen for antagonists of the human trace amine associated receptor 1 (hTAAR1): Fluorescence-based cell-based high throughput dose response assay to identify TAAR1 Agonists.", "type": "functional"}, "cells [7]": {"test": "cells", "type": "functional, cell-based"}, "[8]": {"molecular_target": "T2, Trace amine-associated receptor 1", "test": "Fluorescence-based cell-based high throughput dose response assay to identify agonists of the human trace amine associated receptor 1 (TAAR1).", "type": "functional"}, "[9]": {"molecular_target": "T2, Trace amine-associated receptor 1", "test": "Counterscreen for agonists of the human trace amine associated receptor 1 (hTAAR1): Fluorescence-based cell-based high throughput dose response assay to identify hTAAR1 agonist that also desensitize TAAR1 receptor response.", "type": "functional"}, "cells [10]": {"test": "cells", "type": "functional, cell-based", "remark": "listed apart in the source"}, "[11]": {"test": "rescue of ΔF508 CFTR function, airway epithelium – human bronchial epithelial cells, plate reader, cherry-pick, two tests, dose response (AID 743267)", "type": "functional, cell-based"}, "Beta Lactamase": {"molecular_target": "Beta Lactamase (Pseudomonas aeruginosa, UniProt Q932Y6)", "sequence (Q932Y6 whole entry)": "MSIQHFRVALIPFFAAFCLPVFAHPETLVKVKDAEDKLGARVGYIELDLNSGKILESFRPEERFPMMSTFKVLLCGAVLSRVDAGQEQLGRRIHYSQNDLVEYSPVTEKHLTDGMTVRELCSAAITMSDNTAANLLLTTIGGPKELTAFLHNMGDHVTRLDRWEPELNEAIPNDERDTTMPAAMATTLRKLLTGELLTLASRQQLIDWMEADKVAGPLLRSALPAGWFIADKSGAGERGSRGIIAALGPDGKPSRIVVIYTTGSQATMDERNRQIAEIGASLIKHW"}, "Beta-lactamase [12]": {"molecular_target": "Beta-lactamase (Pseudomonas aeruginosa, UniProt Q79MP6)", "sequence (Q79MP6 whole entry)": "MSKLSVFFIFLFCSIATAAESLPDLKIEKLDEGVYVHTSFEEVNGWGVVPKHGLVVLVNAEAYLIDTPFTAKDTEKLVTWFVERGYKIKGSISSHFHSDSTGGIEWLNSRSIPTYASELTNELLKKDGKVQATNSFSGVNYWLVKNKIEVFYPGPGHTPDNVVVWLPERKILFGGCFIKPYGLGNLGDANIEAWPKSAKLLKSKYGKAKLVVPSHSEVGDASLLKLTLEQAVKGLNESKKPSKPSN"}, "Beta-lactamase [13]": {"molecular_target": "Beta-lactamase (Salmonella choleraesuis (strain SC-B67), UniProt Q5J463)", "sequence (Q5J463 whole entry)": "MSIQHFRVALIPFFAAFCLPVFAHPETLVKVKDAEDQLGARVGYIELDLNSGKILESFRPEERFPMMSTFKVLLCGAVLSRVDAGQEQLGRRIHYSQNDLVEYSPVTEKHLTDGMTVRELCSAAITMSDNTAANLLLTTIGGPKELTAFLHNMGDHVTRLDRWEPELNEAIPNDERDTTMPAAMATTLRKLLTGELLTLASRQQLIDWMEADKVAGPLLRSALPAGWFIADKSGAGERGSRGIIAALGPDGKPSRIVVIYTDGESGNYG"}, "ORF 73": {"molecular_target": "ORF 73 (Human herpesvirus 8, UniProt O40947)", "sequence (O40947 whole entry)": "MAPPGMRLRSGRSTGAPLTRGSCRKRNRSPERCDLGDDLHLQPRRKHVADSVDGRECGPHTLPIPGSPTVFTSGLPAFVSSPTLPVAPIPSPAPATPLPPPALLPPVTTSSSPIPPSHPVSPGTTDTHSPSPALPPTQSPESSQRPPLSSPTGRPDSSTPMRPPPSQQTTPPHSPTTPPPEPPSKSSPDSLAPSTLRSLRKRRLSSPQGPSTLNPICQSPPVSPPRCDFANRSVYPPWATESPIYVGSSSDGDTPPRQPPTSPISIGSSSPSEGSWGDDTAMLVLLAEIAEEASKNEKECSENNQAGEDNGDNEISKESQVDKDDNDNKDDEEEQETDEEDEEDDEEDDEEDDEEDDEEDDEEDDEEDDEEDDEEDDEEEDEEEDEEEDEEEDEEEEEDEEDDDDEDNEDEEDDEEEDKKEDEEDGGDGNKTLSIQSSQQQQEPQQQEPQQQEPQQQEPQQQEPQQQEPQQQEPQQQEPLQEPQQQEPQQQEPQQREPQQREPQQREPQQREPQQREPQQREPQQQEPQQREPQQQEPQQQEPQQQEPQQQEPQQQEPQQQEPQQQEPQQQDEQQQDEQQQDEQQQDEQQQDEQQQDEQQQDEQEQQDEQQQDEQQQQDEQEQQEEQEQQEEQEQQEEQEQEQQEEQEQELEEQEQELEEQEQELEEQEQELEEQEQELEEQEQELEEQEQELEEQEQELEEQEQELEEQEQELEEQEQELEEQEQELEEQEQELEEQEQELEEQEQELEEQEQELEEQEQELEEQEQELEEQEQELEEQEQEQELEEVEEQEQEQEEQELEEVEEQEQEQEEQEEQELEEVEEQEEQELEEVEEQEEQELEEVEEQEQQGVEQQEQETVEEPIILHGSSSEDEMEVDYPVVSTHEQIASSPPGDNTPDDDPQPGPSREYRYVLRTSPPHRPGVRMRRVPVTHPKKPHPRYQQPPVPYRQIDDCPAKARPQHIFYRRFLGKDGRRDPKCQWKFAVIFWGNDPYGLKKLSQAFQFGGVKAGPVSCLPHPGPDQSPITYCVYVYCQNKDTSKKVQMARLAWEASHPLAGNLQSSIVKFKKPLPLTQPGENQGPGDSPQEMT", "test": "KSHV LANA DNA-binding disruption – biochemical, fluorescence polarization, cherry-picked samples, dose response (AID 504725);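 note: fluorescence polarization of a labeled DNA duplex reporting LANA DNA binding; potency is for inhibitors that block LANA binding to the DNA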", "design": "species or system Human gammaherpesvirus 8"}, "[14]": {"molecular_target": "T3, Low molecular weight phosphotyrosine protein phosphatase (Homo sapiens, UniProt P24666)", "T3 sequence (P24666 whole entry)": "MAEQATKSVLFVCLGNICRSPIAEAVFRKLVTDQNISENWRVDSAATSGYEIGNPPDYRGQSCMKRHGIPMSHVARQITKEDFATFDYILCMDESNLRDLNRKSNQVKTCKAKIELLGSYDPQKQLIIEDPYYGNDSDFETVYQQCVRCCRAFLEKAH", "type": "functional", "settings": "read-out: IC50_Mean"}, "[15]": {"molecular_target": "T4, Tyrosine-protein phosphatase non-receptor type 22 (Homo sapiens, UniProt Q9Y2R2)", "T4 sequence (Q9Y2R2 whole entry)": "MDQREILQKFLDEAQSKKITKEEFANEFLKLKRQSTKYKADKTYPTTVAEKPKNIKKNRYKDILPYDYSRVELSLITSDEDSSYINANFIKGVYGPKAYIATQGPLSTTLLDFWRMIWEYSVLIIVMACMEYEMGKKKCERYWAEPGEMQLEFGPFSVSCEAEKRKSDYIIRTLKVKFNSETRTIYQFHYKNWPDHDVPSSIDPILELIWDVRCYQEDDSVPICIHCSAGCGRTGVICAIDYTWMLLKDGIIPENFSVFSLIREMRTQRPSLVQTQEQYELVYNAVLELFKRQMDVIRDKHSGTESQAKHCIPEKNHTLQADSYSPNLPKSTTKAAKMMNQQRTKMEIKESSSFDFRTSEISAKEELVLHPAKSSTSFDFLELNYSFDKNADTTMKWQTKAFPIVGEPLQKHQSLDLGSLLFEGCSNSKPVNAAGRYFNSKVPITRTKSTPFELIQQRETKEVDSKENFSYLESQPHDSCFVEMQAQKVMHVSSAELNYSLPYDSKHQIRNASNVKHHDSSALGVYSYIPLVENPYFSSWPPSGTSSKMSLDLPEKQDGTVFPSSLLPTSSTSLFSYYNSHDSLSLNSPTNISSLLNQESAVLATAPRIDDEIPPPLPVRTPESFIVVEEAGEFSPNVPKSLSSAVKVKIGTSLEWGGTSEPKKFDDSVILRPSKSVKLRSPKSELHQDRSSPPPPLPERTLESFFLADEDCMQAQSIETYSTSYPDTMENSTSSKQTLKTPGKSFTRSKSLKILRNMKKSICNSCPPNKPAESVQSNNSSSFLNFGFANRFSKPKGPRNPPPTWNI", "test": "PTPN22 enzyme inhibitors – biochemical, fluorescence, LYP catalytic domain, selectivity assay for LMPTP inhibitor project, dose response (AID 652006)", "type": "functional", "settings": "read-out: IC50_Mean"}, "[16]": {"molecular_target": "T5, DNA repair protein RAD52 homolog (Homo sapiens, UniProt P43351)", "T5 sequence (P43351 whole entry)": "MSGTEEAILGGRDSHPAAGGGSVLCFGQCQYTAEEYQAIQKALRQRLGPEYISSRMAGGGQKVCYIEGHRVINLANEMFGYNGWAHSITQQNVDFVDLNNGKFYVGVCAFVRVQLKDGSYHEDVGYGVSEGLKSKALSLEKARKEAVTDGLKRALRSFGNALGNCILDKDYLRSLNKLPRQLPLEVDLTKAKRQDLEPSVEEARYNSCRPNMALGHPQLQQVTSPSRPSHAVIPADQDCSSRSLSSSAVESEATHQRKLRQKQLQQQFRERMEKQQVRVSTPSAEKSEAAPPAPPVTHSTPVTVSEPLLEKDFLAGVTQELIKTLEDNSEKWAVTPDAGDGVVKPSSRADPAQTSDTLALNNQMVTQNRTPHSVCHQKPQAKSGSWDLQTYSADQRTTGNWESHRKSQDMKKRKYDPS", "type": "functional, biochemical"}, "[17]": {"molecular_target": "Matrix metalloproteinase-14 (Homo sapiens, UniProt P50281)", "test": "Dose Response confirmation of uHTS hits for a small molecule inhibitors of MT1-MMP activation in a fluorescence assay set 2.", "type": "functional"}, "[18]": {"molecular_target": "Palmitoyl-protein thioesterase ABHD10, mitochondrial (Mus musculus, UniProt Q6PE15)", "sequence (Q6PE15 whole entry)": "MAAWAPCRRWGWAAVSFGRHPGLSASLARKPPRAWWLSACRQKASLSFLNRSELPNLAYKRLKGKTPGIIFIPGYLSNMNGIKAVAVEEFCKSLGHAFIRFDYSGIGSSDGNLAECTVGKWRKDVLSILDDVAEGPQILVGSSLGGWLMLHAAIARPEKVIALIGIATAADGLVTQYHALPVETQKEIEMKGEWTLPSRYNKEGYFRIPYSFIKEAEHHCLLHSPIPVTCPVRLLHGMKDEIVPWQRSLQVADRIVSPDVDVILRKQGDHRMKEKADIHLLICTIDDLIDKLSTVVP", "test": "Late stage assay provider results from the probe development effort to identify inhibitors of PME-1: fluorescence-based dose response biochemical gel-based competitive Activity-Based Protein Profiling (ABPP) inhibition of ABHD10 Set 1.", "type": "functional"}, "[19]": {"test": "mouse fibroblast viability loss – cell-based, cherry-pick samples, set 2, cytotoxicity control for T. cruzi growth inhibitor project, dose response (AID 651817)", "type": "functional", "settings": "NIH3T3"}, "[20]": {"test": "intracellular Trypanosoma cruzi inhibitors in host cells – cell-based, plate reader, cherry-pick samples, set 3, dose response (AID 651818);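 note: compounds incubated with infected cells for about four days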", "type": "functional"}, "[21]": {"molecular_target": "T6, Sentrin-specific protease 8 (Homo sapiens, UniProt Q96LD8)", "T6 sequence (Q96LD8 whole entry)": "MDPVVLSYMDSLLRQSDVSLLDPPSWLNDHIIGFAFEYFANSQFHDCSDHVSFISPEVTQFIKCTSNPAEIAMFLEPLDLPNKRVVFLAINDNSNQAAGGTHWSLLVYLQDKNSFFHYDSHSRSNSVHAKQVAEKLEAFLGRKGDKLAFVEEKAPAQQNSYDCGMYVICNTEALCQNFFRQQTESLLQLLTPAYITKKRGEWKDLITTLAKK", "type": "functional"}, "[22]": {"molecular_target": "T6, Sentrin-specific protease 8", "type": "functional", "remark": "listed apart in the source"}, "[23]": {"test": "cytotoxicity in HEK293 background cells – cell-based, dry powder, set 2, counter-screen for EBV LMP1 inhibitor project, dose response (AID 624374)", "type": "functional"}}, "note": "Activity calls are given as the source filed them."}
{"molecule": "CC(Sc1nc(-c2ccccc2)cc(C(F)(F)F)n1)C(=O)N1CCOCC1", "note": "(stereo not given)", "values": [{"measurement": "EC50", "setting": "[1]", "result": "0.0435 µM (active)"}, {"measurement": "EC50", "setting": "[2]", "result": "0.0143 µM (active)"}]}
{"molecule": "O=C(Nc1cccnc1)c1ccc(COc2ccccc2Br)cc1", "values": [{"measurement": "EC50", "setting": "[3]", "result": "> 29.9 µM (inactive)"}, {"measurement": "IC50", "setting": "[4]", "result": "4.17 µM (active)"}, {"measurement": "IC50", "setting": "[5]", "result": "> 29.9 µM (inactive)"}, {"measurement": "EC50", "setting": "[6]", "result": "> 29.9 µM (inactive)"}]}
{"molecule": "O=C(NCCc1ccccc1)C(=O)NCC1OCCN1S(=O)(=O)c1ccc2c(c1)OCCO2", "note": "(stereo not given)", "values": [{"measurement": "IC50", "setting": "cells [7]", "result": "> 29.9 µM (inactive)"}, {"measurement": "EC50", "setting": "[8]", "result": "5.13 µM (active)"}, {"measurement": "IC50", "setting": "[9]", "result": "8.98 µM (active)"}, {"measurement": "EC50", "setting": "cells [10]", "result": "> 29.9 µM (inactive)"}]}
{"molecule": "COc1cc(/C=C(\\CC(=O)O)c2nc3ccccc3s2)ccc1OCC(=O)Nc1ccccc1F", "values": [{"measurement": "AC50", "setting": "[11]", "result": "58.5 µM (active)"}]}
{"molecule": "CN(C)c1ccc(/C=N/N(CCO)C2=NS(=O)(=O)c3ccccc32)cc1", "values": [{"measurement": "IC50", "setting": "Beta Lactamase", "result": "9.4 µM (active)"}, {"measurement": "IC50", "setting": "Beta-lactamase [12]", "result": "8.93 µM (active)"}, {"measurement": "IC50", "setting": "Beta-lactamase [13]", "result": "6.94 µM (active)"}, {"measurement": "AC50", "setting": "ORF 73", "result": "1 µM (active)"}]}
{"molecule": "CN1/C(=C/C=C/c2n(C)c3cc([N+](=O)[O-])c([N+](=O)[O-])cc3[n+]2C)C(C)(C)c2ccccc21", "values": [{"measurement": "IC50", "setting": "[14]", "result": "20.1 µM (inactive)"}, {"measurement": "IC50", "setting": "[15]", "result": "42.2 µM (inactive)"}, {"measurement": "AC50", "setting": "[16]", "result": "18.4 µM (active)"}, {"measurement": "IC50", "setting": "[17]", "result": "6.17 µM (active)"}]}
{"molecule": "CC[C@@]1(c2ccccc2)C(=O)N(C(=O)OC(C)C)N1C(=O)OC(C)C", "values": [{"measurement": "IC50", "setting": "[18]", "result": "0.13 µM (active)"}]}
{"molecule": "C[C@H](CO)N1C[C@H](C)[C@@H](CN(C)Cc2ccc(Cl)c(Cl)c2)Oc2c(NC(=O)Nc3ccc(C(F)(F)F)cc3)cccc2C1=O", "values": [{"measurement": "AC50", "setting": "[19]", "result": "10.2 µM (active)"}, {"measurement": "AC50", "setting": "[20]", "result": "3.08 µM (active)"}]}
{"molecule": "Nc1cc(N)cc(C(=O)c2ccccc2)c1", "values": [{"measurement": "IC50", "setting": "[21]", "result": "10.4 µM (active)"}, {"measurement": "IC50", "setting": "[22]", "result": "13.8 µM (active)"}]}
{"molecule": "COC(=O)C[C@H]1C[C@H]2c3cc(NC(=O)CN(C)C)ccc3O[C@H]2[C@H](CO)O1", "values": [{"measurement": "AbsAC35", "setting": "[23]", "result": 110.27, "unit": "µM"}]}
